One data set deals with HepG2. The experiment in a line: Antiproliferation CCK-8 assay, HepG2. It is filed as cell-based. The conditions noted are these: Homo sapiens, CCK-8, 72 h. As to the method:
(§1) The HepG2, MDA-MB-231, and HCT116 cell lines were derived from our own laboratory (the laboratory of our collaborator, Dr. Xiaolei Zhou, at College of Food Science and Biology in Hebei University of Science and Technology). The antiproliferative activities were assessed using the CCK-8 assay. Cell viability was measured according to the manufacturer’s instructions for the Cell Counting Kit-8 (Meilunbio, Dalian, China). In this assay, 2.5 × 10^3 cells per well were seeded into 96-well plates.
(§2) After an initial 12 h incubation, cancer cells were exposed to varying concentrations of compound 17c for 72 h. Following CCK-8 solution addition and 2 h incubation, the absorbance at 450 nm was measured using a BioTek Synergy HTX microplate reader. Experiments included triplicate wells with three independent replicates. The IC50 values for compound 17c were derived from an analysis of the dose–response curves in GraphPad PRISM 9.5.
On the technique in general: Tetrazolium dyes change colour on reduction, which living cells bring about.

Another data set relates to MDA-MB-231. The experiment in a line: Antiproliferation CCK-8 assay, MDA-MB-231. It is filed as cell-based. The conditions noted are these: Homo sapiens, CCK-8, 72 h. As to the method: as §1, §2
The subject of the next data set is HCT116. Put plainly: Antiproliferation CCK-8 assay, HCT116. It is filed as cell-based. The conditions noted are these: Homo sapiens, HCT-116; CCK-8, 72 h; read-out: IC50 HCT116. The method, then: as §1, §2
The test system of another data set is xenograft models. Details: method as in PMID 29554921. The settings on record: cited from earlier work.
The conditions of data set [1]: cited from earlier work.
For data set [2] the following is noted: cited from earlier work. This is another data set of the same source.
The conditions of data set [3]: cited from earlier work. The source holds these as a separate data set.

In the case of `COc1cc2nccc(Oc3ccc(NC(=O)C4(C(=O)Nc5ccc(F)cc5)CC4)cc3)c2cc1OC` [cabozantinib, reference compound], the IC50 was determined as 7.87 ± 2.11 µM in the data set with HepG2, 4.62 ± 0.54 µM in the data set with MDA-MB-231 and 15.6 ± 4.39 µM in the data set with HCT116.

Consider `CCCCNc1ncc(-c2ccc(CN3CCOCC3)cn2)c(N[C@H]2CC[C@H](O)CC2)n1` [UNC2250], for which, in the data set on xenograft models, the “tumor volume reduction vs. control” value was ~ 60%. On to `CCCCNc1ncc2c(-c3ccc(F)cc3)nn(CC3CCC(N)CC3)c2n1` (stereo not shown) [UNC569], for which the “human microsomal t1/2” value in data set [1] was less than 15 min. Moreover, the “oral bioavailability F” value in data set [2] is reported as less than 10%. On to `CCCCNc1ncc2c(-c3ccc(CN4CCN(C)CC4)cc3)cn([C@H]3CC[C@H](O)CC3)c2n1` [UNC2025], for which, in data set [3], the “t1/2 in human hepatocytes” value is 68 min.

Broadly, the IC50 is the concentration needed to halve the response being measured.
